Test results: BindingDB's records for doi:10.1021/acs.jmedchem.2c02005 (The Hong Kong Polytechnic University, 2023)

Key:
[1] = Negative allosteric modulator activity at human P-gp T1226Y mutant expressed in HEK293FT cells assessed as reversal of P-gp mediated PTX resistance by measuring paclitaxel IC50 incubated for 5 days by MTS assay (Rvb = 449.3 +/- 31.2 nM)
[2] = Negative allosteric modulator activity at human P-gp L1113A mutant expressed in HEK293FT cells assessed as reversal of P-gp mediated PTX resistance by measuring paclitaxel IC50 incubated for 5 days by MTS assay (Rvb = 590 +/- 14.2 nM)
[3] = Negative allosteric modulator activity at human P-gp Q1193N mutant expressed in HEK293FT cells assessed as reversal of P-gp mediated PTX resistance by measuring paclitaxel IC50 incubated for 5 days by MTS assay (Rvb = 560.2 +/- 43.9 nM)
[4] = Negative allosteric modulator activity at human P-gp I1115F mutant expressed in HEK293FT cells assessed as reversal of P-gp mediated PTX resistance by measuring paclitaxel IC50 incubated for 5 days by MTS assay (Rvb = 663.1 +/- 10.2 nM)
[5] = Negative allosteric modulator activity at human P-gp H1195A mutant expressed in HEK293FT cells assessed as reversal of P-gp mediated PTX resistance by measuring paclitaxel IC50 incubated for 5 days by MTS assay (Rvb = 3.4 +/- 1.5 nM)
[6] = Negative allosteric modulator activity at human P-gp T1226F mutant expressed in HEK293FT cells assessed as reversal of P-gp mediated PTX resistance by measuring paclitaxel IC50 incubated for 5 days by MTS assay (Rvb = 409.9 +/- 19.7 nM)
[7] = Negative allosteric modulator activity at human P-gp I1115E mutant expressed in HEK293FT cells assessed as reversal of P-gp mediated PTX resistance by measuring paclitaxel IC50 incubated for 5 days by MTS assay (Rvb = 7.4 +/- 0.8 nM)
[8] = Negative allosteric modulator activity at human P-gp I1115Y mutant expressed in HEK293FT cells assessed as reversal of P-gp mediated PTX resistance by measuring paclitaxel IC50 incubated for 5 days by MTS assay (Rvb = 6.9 +/- 1.2 nM)
[9] = Negative allosteric modulator activity at human P-gp I1115A mutant expressed in HEK293FT cells assessed as reversal of P-gp mediated PTX resistance by measuring paclitaxel IC50 incubated for 5 days by MTS assay (Rvb = 7.5 +/- 2.4 nM)
[10] = Negative allosteric modulator activity at human wildtype P-gp expressed in HEK293FT cells assessed as reversal of P-gp mediated PTX resistance by measuring paclitaxel IC50 incubated for 5 days by MTS assay (Rvb = 540.5 +/- 20.3 nM)
[11] = Negative allosteric modulator activity at human P-gp I1115K mutant expressed in HEK293FT cells assessed as reversal of P-gp mediated PTX resistance by measuring paclitaxel IC50 incubated for 5 days by MTS assay (Rvb = 6.2 +/- 2 nM)
[12] = Negative allosteric modulator activity at human P-gp T1226A mutant expressed in HEK293FT cells assessed as reversal of P-gp mediated PTX resistance by measuring paclitaxel IC50 incubated for 5 days by MTS assay (Rvb = 6.3 +/- 2.1 nM)
[13] = Negative allosteric modulator activity at human P-gp C1227A mutant expressed in HEK293FT cells assessed as reversal of P-gp mediated PTX resistance by measuring paclitaxel IC50 incubated for 5 days by MTS assay (Rvb = 352.1 +/- 30.6 nM)
[14] = Negative allosteric modulator activity at human P-gp I1115N mutant expressed in HEK293FT cells assessed as reversal of P-gp mediated PTX resistance by measuring paclitaxel IC50 incubated for 5 days by MTS assay (Rvb = 10.2 +/- 1.6 nM)
[15] = Negative allosteric modulator activity at human P-gp I1115M mutant expressed in HEK293FT cells assessed as reversal of P-gp mediated PTX resistance by measuring paclitaxel IC50 incubated for 5 days by MTS assay (Rvb = 9.8 +/- 0.9 nM)
[16] = Negative allosteric modulator activity at human P-gp Q1193E mutant expressed in HEK293FT cells assessed as reversal of P-gp mediated PTX resistance by measuring paclitaxel IC50 incubated for 5 days by MTS assay (Rvb = 395.8 +/- 13.4 nM)
[17] = Negative allosteric modulator activity at human P-gp G1114L mutant expressed in HEK293FT cells assessed as reversal of P-gp mediated PTX resistance by measuring paclitaxel IC50 incubated for 5 days by MTS assay (Rvb = 4.5 +/- 1.1 nM)
[18] = Negative allosteric modulator activity at human P-gp Q1193C mutant expressed in HEK293FT cells assessed as reversal of P-gp mediated PTX resistance by measuring paclitaxel IC50 incubated for 5 days by MTS assay (Rvb = 359.4 +/- 22.3 nM)
[19] = Negative allosteric modulator activity at human P-gp I1115L mutant expressed in HEK293FT cells assessed as reversal of P-gp mediated PTX resistance by measuring paclitaxel IC50 incubated for 5 days by MTS assay (Rvb = 472 +/- 15.4 nM)
[20] = Negative allosteric modulator activity at human P-gp Q1193A mutant expressed in HEK293FT cells assessed as reversal of P-gp mediated PTX resistance by measuring paclitaxel IC50 incubated for 5 days by MTS assay (Rvb = 483.4 +/- 17.2 nM)
[21] = Negative allosteric modulator activity at P-gp in human LCC6MDR cells overexpressing P-gp assessed as reversal of P-gp mediated PTX resistance by measuring paclitaxel IC50 incubated for 5 days by MTS assay
[22] = Negative allosteric modulator activity at human P-gp Q1193K mutant expressed in HEK293FT cells assessed as reversal of P-gp mediated PTX resistance by measuring paclitaxel IC50 incubated for 5 days by MTS assay (Rvb = 466.2 +/- 72.3 nM)
[23] = Negative allosteric modulator activity at human P-gp G1114V mutant expressed in HEK293FT cells assessed as reversal of P-gp mediated PTX resistance by measuring paclitaxel IC50 incubated for 5 days by MTS assay (Rvb = 3.4 +/- 0.5 nM)
[24] = Negative allosteric modulator activity at human P-gp G1114A mutant expressed in HEK293FT cells assessed as reversal of P-gp mediated PTX resistance by measuring paclitaxel IC50 incubated for 5 days by MTS assay (Rvb = 5.6 +/- 1.1 nM)
[25] = Negative allosteric modulator activity at human P-gp Q1193F mutant expressed in HEK293FT cells assessed as reversal of P-gp mediated PTX resistance by measuring paclitaxel IC50 incubated for 5 days by MTS assay (Rvb = 453.6 +/- 14.8 nM)
[26] = Negative allosteric modulator activity at human P-gp Q1193T mutant expressed in HEK293FT cells assessed as reversal of P-gp mediated PTX resistance by measuring paclitaxel IC50 incubated for 5 days by MTS assay (Rvb = 523.6 +/- 33.7 nM)
[27] = Negative allosteric modulator activity at human P-gp I1115W mutant expressed in HEK293FT cells assessed as reversal of P-gp mediated PTX resistance by measuring paclitaxel IC50 incubated for 5 days by MTS assay (Rvb = 7.8 +/- 0.9 nM)
[28] = Negative allosteric modulator activity at human P-gp G1114I mutant expressed in HEK293FT cells assessed as reversal of P-gp mediated PTX resistance by measuring paclitaxel IC50 incubated for 5 days by MTS assay (Rvb = 10.2 +/- 2.4 nM)
[29] = Negative allosteric modulator activity at human P-gp T1226W mutant expressed in HEK293FT cells assessed as reversal of P-gp mediated PTX resistance by measuring paclitaxel IC50 incubated for 5 days by MTS assay (Rvb = 363.5 +/- 24.9 nM)
[30] = Negative allosteric modulator activity at P-gp in human LCC6MDR cells overexpressing P-gp assessed as reversal of P-gp mediated paclitaxel resistance activity incubated for 5 days by MTS assay

SMILES: O=c1cc(-c2ccc(OCCOCCNCc3ccccc3)cc2)oc2ccccc12
- IC50 [1]: 7.2 nM
- IC50 [2]: 4.2 nM
- IC50 [3]: 11 nM
- IC50 [4]: 43 nM
- IC50 [5]: 4.7 nM
- IC50 [6]: 6.9 nM
- IC50 [7]: 7.6 nM
- IC50 [8]: 8.2 nM
- IC50 [9]: 6.3 nM
- IC50 [10]: 7.4 nM
- IC50 [11]: 7.8 nM
- IC50 [12]: 4.6 nM
- IC50 [13]: 5.2 nM
- IC50 [14]: 9.9 nM
- IC50 [15]: 7.9 nM
- IC50 [16]: 93 nM
- IC50 [17]: 4.8 nM
- IC50 [18]: 29 nM
- IC50 [19]: 10 nM
- IC50 [20]: 112 nM
- IC50 [21]: 3.8 nM
- IC50 [22]: 48 nM
- IC50 [23]: 3.5 nM
- IC50 [24]: 4.3 nM
- IC50 [25]: 81 nM
- IC50 [26]: 61 nM
- IC50 [27]: 8.3 nM
- IC50 [28]: 8.6 nM
- IC50 [29]: 6.4 nM

SMILES: [N-]=[N+]=NCc1cc(CNCCOCCOc2ccc(-c3cc(=O)c4ccccc4o3)cc2)cc(N=[N+]=[N-])c1
- EC50 [30]: 110 nM
- IC50 [21]: 2.1 nM

SMILES: C#CCNc1cc(C)cc2c(=O)cc(-c3ccc(OCCOCCNCc4ccc(C5(C(F)(F)F)N=N5)cc4)cc3)oc12
- EC50 [30]: 733 nM
- IC50 [21]: 280 nM

SMILES: C#CCNc1cc(C)cc2c(=O)cc(-c3ccc(OCCOCCN(Cc4ccc(C5(C(F)(F)F)N=N5)cc4)Cc4ccc(C5(C(F)(F)F)N=N5)cc4)cc3)oc12
- IC50 [21]: 312 nM

SMILES: O=c1cc(-c2ccc(OCCOCCNCc3ccc(C4(C(F)(F)F)N=N4)cc3)cc2)oc2ccccc12
- EC50 [30]: 107 nM
- IC50 [21]: 2.3 nM

SMILES: O=c1cc(-c2ccc(OCCOCCN(Cc3ccc(C4(C(F)(F)F)N=N4)cc3)Cc3ccc(C4(C(F)(F)F)N=N4)cc3)cc2)oc2ccccc12
- EC50 [30]: 3010 nM
- IC50 [21]: 158 nM

SMILES: C#CCN(CCOCCOc1ccc(-c2cc(=O)c3ccccc3o2)cc1)Cc1ccc(C2(C(F)(F)F)N=N2)cc1
- EC50 [30]: 602 nM
- IC50 [21]: 57 nM

SMILES: C#CCOc1cccc2oc(-c3ccc(OCCOCCNCc4ccc(C5(C(F)(F)F)N=N5)cc4)cc3)cc(=O)c12
- EC50 [30]: 66 nM
- IC50 [21]: 1.4 nM

SMILES: O=c1cc(-c2ccc(OCCOCCOCCOCCOc3ccc(-c4cc(=O)c5c(O)cc(O)cc5o4)cc3)cc2)oc2cc(O)cc(O)c12
- EC50 [30]: 900 nM

SMILES: O=c1cc(-c2ccc(OCCOCCOCCOCCOc3ccc(-c4cc(=O)c5ccccc5o4)cc3)cc2)oc2ccccc12
- EC50 [30]: 360 nM

SMILES: O=c1cc(-c2ccc(O)cc2)oc2cc(O)cc(O)c12 [Naringenin, 18]
- EC50 [30]: > 10000 nM
